Series [1] has as its system LSC-enriched leukemia cells on OP9 stromal cells. Nature of the series: Leukemia coculture assay on OP9 stroma (primary screen). The series is classed as cell-based, murine. As to conditions: 5 μM. The method, then:
Plate covers were re-added and the plates were placed in the incubator for 24 hours. The plate covers were removed, 100 nl of compound in dimethyl sulfoxide (DMSO) (final concentration 5 μM in 0.2% DMSO) was added to the appropriate wells using a CyBi-Well Vario (CyBio) the plate covers were replaced, and the plates were placed in the incubator for 3 days. Plate covers were removed, the media was aspirated from each plate, 50 μl of fresh media (50/50 coculture and OP9 conditioned media mix) was added and another 100 nl of compound was added to the appropriate wells. The plates were re-covered and placed in the incubator for 2 days. At this point, the plates were imaged using a IX Microscope (Molecular Devices) at 10× magnification at 9 sites per well in both the GFP and dsRed channels. Images were stored on the Broad Institute server for future analysis. […]
Briefly, primary dsRed^+ leukemia cells enriched for LSCs were isolated by flow cytometry and cocultured on GFP^+ OP9 stromal monolayers, treated with 5 μM of compound (to a final concentration of 0.2% DMSO), and imaged 5 days later by automated microscopy (dsRed channel for leukemia, and GFP channel for stroma) (FIG. 1). The stored images were analyzed for levels of cobblestoning as described herein.

For series [2], the system named is primary CD34+ cells from normal human cord blood. Description: Human CD34+ CAFC assay, normal cells. The settings on record: 1.25 μM to 10 μM, 18 hours exposure.
Protocol: Samples were centrifuged over Ficoll-Paque PLUS (GE Heathcare) step gradient (2000×g for 30 min in 50 ml tubes) to obtain mononuclear cells and then CD34^+ cells were selected with immunomagnetic beads (MACS Cell Separation, Miltenyi Biotec, Auburn, Calif.), except in one case, NPM1 mutation, which was CD34^− by flow cytometry and mononuclear cells were used. 50,000 cells were placed into 12.5 cm^2 flasks (Becton Dickinson Labware, Franklin Lakes, N.J.) in co-culture with the MS-5 mouse bone marrow-derived stromal cell line (kindly provided by Dr. Itoh, Dept. of Biology, Niigata University, Japan) and DMSO control and the number of final cobblestones was later read. The number of cells needed to form one cobblestone was then placed in triplicate for each sample with each drug at serial drug dilutions from 10 μM to 0.63 μM as well as with DMSO 0.5% for control purposes and incubated overnight with Iscove's modified Dulbecco's medium (IMDM, in house media preparation laboratory)+20% fetal calf serum (FCS, Atlanta Biologicals, Lawrenceville, Ga.) with glutamine (2 mM/ml, in house media preparation laboratory), monothioglycerol (MTG, 10 nM/ml, Sigma Cell Culture, St. Louis Mo.), c-Kit ligand (20 ng/ml, Amgen, Thousand Oaks, Calif.), Flt ligand (20 ng/ml, Imclone, Bridgewater, N.J.), TPO (20 ng/ml, Amgen) and IL-3 (20 ng/ml, Amgen). […]
(§1) The cells were treated with compound or DMSO carrier control at four doses (ranging from 1.25 μM to 10 μM) in triplicate for 18 hours, washed thoroughly, then plated onto human stromal MS-5 monolayers (Itoh, K., Tezuka, H., Sakoda, H., Konno, M., Nagata, K., Uchiyama, T., Uchino, H., and Mori, K. J. (1989). Exp Hematol 17, 145-153.) and maintained in coculture with one subsequent half media change. After 5 weeks (2 weeks for the FLT3-ITD sample (Moore, M. A., Dorn, D. C., Schuring a, J. J., Chung, K. Y., and Morrone, G. (2007). Exp Hematol 35, 105-116.)), cobblestone formation was determined, and dose-response curves against the 7 cell types were generated for each compound.
The subject of a further series is normal HSPCs. Nature of the series: Normal HSPC coculture on primary MSC stroma. As to conditions: Mus musculus. How it is done:
The material was cleaned, crushed and sequentially passed through 100 and 70 μM filters (Falcon). […] The biotin-labeled cells were spun down, resuspended in 0.5% FBS in PBS, and incubated for 15-30 minutes at 4° C. with agitation with 1 mL of Dynabead M-280 streptavidin-linked magnetic beads per 4 mice. The bead-linked cells were depleted using magnetic separation and rinsed once. The lineage- and CD48-depleted cell fraction was labeled with streptavidin-APC-Cy7 antibody from BD Biosciences and c-kit-APC, Sca-1-FITC, CD48-Pacific Blue, and CD150 PE-Cy7 antibodies from eBioscience. DsRed-positive lineage-Sca-1+c-kit+CD48− HSCs were sorted using a FACS DiVa or FACS ARIA (BD Biosciences).
A total of 20 μL of 20 μg/mL fibronectin (Millipore) in PBS was added to each well of a 384-well clear-bottomed black tissue-culture treated plate (Corning) and incubated for 30-120 minutes at 33° C. or 37° C. […] The fibronectin solution was removed from each well using a 24-channel wand aspirator; then 30 μL of BMSC solution was added to plate 2000 BMSCs/well. […] Each plate was covered with a sterile rayon breathable membrane (VWR) and plastic lid, and then spun at 500 rpm (approximately 60× gravity) with slow braking. The plates were incubated at room temperature for 60-90 minutes before incubation at 33° C. with 5% CO2 for 3 days prior to HSC addition.
The sorted HSCs, SLAMs and progenitor cells were resuspended in phenol-red free alpha-MEM with 20% FBS and diluted to 10,000 cells/mL. A total of 20 μL of cell solution containing 200 hematopoietic cells was added to each well using a multichannel pipettor or liquid-dispensing system. Each plate was covered with a sterile rayon breathable membrane (VWR) and plastic lid, and then spun at 500 rpm (approximately 60×gravity) with slow braking. The plates were incubated at room temperature for 60-90 minutes before incubation at 33° C. with 5% CO2 overnight prior to compound or cytokine addition.
Image analysis was performed using MetaXpress software from MDC and CellProfiler software from the Broad Institute of Harvard and MIT.
Compound addition and incubation was performed as described for the LSC coculture screen above, but without a media change or readdition of the compound.
The selected set was screened in 8-point dose against both normal HSPCs with a high number of replicates (6) and LSC-enriched leukemia cells, each cocultured on primary MSCs.

Series [3] has as its system human AML cell lines (U937, THP-1, NOMO-1, SKM-1, NB4, and OCI-AML3). Nature of the series: AML cell line screen (CellTiter-Glo). Format: cell-based. The settings on record: for IC50: Homo sapiens, AML cell line screens, read-out: IC50s across 6 cell lines. How it is done:
Nomo-1, THP-1, SKM-1, NB4, and U937 cell lines were grown in RPMI (12-702F, BioWhittaker), 10% FBS (10082-147, Gibco), and 1% Pen-Strep (15140-122, Gibco) and OCI-AML3 was grown in α-MEM (36453, Stem Cell Technologies), 10% FBS (10082-147, Gibco), and 1% Pen-Strep (15140-122, Gibco). 3000 cells were plated in each well in 30 μl in white, 384 well plates (3570, Corning) and 16 hours later 100 nl of the appropriate compound was added to each well. 72 hours later the plates were cooled to room temperature and 30 μl of CellTiterGlo reagent (G7570, Promega) diluted 1:1 in PBS was added to each well and the plates were analyzed using an Envision (Perkin Elmer).
First, a traditional small molecule screen was performed on six human AML cell lines (U937, THP-1, NOMO-1, SKM-1, NB4, and OCI-AML3), two of which (NOMO-1, THP-1) contain the same oncogene (MLL-AF9) used to generate the primary leukemia cells utilized in our coculture system. The cell lines were grown in isolation under standard conditions, treated with the 160 compounds at 8-point dose, and three days later the viability of each well was quantified using CellTiter-Glo reagent. The IC50s from these AML cell line screens were then compared to the IC50s from the coculture screens. […] As discussed, the existence of such differentially-active compounds is consistent with our hypothesis that coculturing can expand the pool of therapeutically promising compounds identified in high throughput format.
For orientation: In ATP-based viability assays light output follows the ATP content of the culture.

The subject of series [4] is CD34+ cells from primary human leukemia samples. Description: Human CD34+ CAFC assay, leukemia samples. The series is classed as cell-based. As to conditions: 1.25 μM to 10 μM, 18 hours exposure, read at 5 weeks (2 weeks FLT3-ITD).
Protocol: Samples were centrifuged over Ficoll-Paque PLUS (GE Heathcare) step gradient (2000×g for 30 min in 50 ml tubes) to obtain mononuclear cells and then CD34^+ cells were selected with immunomagnetic beads (MACS Cell Separation, Miltenyi Biotec, Auburn, Calif.), except in one case, NPM1 mutation, which was CD34^− by flow cytometry and mononuclear cells were used. 50,000 cells were placed into 12.5 cm^2 flasks (Becton Dickinson Labware, Franklin Lakes, N.J.) in co-culture with the MS-5 mouse bone marrow-derived stromal cell line (kindly provided by Dr. Itoh, Dept. of Biology, Niigata University, Japan) and DMSO control and the number of final cobblestones was later read. The number of cells needed to form one cobblestone was then placed in triplicate for each sample with each drug at serial drug dilutions from 10 μM to 0.63 μM as well as with DMSO 0.5% for control purposes and incubated overnight with Iscove's modified Dulbecco's medium (IMDM, in house media preparation laboratory)+20% fetal calf serum (FCS, Atlanta Biologicals, Lawrenceville, Ga.) with glutamine (2 mM/ml, in house media preparation laboratory), monothioglycerol (MTG, 10 nM/ml, Sigma Cell Culture, St. Louis Mo.), c-Kit ligand (20 ng/ml, Amgen, Thousand Oaks, Calif.), Flt ligand (20 ng/ml, Imclone, Bridgewater, N.J.), TPO (20 ng/ml, Amgen) and IL-3 (20 ng/ml, Amgen). Cells were then washed to remove the drugs and placed into 96 well cell culture plates (Becton Dickinson) with α-MEM (in house media preparation laboratory)+12.5% FCS+12.5% horse serum (Gemini Bio-products, West Sacramento, Calif.) with glutamine, MTG, hydrocortisone (1 nM/ml, Sigma) and IL-3 in co-culture with MS-5 stromal cells. […] The same procedure was followed with normal CD34+ cells obtained from cord blood.
as §1
Series [5] relates to LSC-enriched leukemia cells (MLL-AF9). Description: Leukemia coculture assay on primary MSC stroma (cobblestoning readout). Format: cell-based, murine. The settings on record: for IC50: Mus musculus; for leukemia-selective activity in coculture vs normal HSPCs: primary MSC stroma. How it is done: Whole bone marrow were harvested from C57/B16 actin-dsRed mice (006051, Jackson Labs), subjected to red blood cell lysis (Qiagen), then granulocyte-macrophage progenitors (GMPs) were isolated by Fluorescence-activated cell sorting (FACsAria, Becton Dickinson). GMPs were spinfected twice (2500 rpm, 90 min, 37 C) in the presence of mIL3 (10 ng/ml, Peprotech), mIL6 (10 ng/ml, Peprotech), and mSCF (10 ng/ml, Peprotech) with pMSCV-MLL-AF9-Neo virus then transplanted into lethally irradiated C57/B16 recipients. After disease onset, the spleens were harvested and transplanted into sublethally irradiated secondary recipients. Subsequent transplantation of bulk spleen cells from leukemic secondary mice was repeated twice to generate leukemic GMPs from quaternary transplant leukemic mouse bone marrow.
Long bones and hips from moribund leukemic mice were harvested, cleaned, crushed and sequentially passed through 100 and 70 μM filters (Falcon). The cells were RBC lysed (Qiagen) and stained in PBS+2% FBS (Omega). Antibodies included lineage markers CD4, CD8, Gr1, Mac1, IL-7R, and Ter119 (Caltag), c-kit (17-1172-83, eBioscience), Sca-1 (11-5981-82, eBioscience), CD34 (11-0341-85, eBioscience), and CD16/32 (25-0161-82, eBioscience). Hoechst 33258 (H21491, Invitrogen) was also used, to identify live cells. Cells were sorted on a FacsAria II (Becton Dickinson).
The humerii, tibiae, ilia, femurs, and spine were isolated from actin-GFP mice (000329, Jackson Lab) crushed using a mortar and pestle, washed in phosphate-buffered saline (PBS) without magnesium and calcium (Gibco) with 0.5% fetal bovine serum (FBS) (HyClone) and filtered through a 70-μm filter. Red blood cell lysis was performed with ammonium-chloride/potassium-chloride (ACK) lysing buffer (Lonza), the cells were resuspended in α-MEM (StemCell Technologies), 20% FBS (HyClone) and 1× Pen-Strep (CellGro), plated in 25 ml in 150-cm^2 tissue-culture flasks (three per mouse), and incubated at 33° C. with 5% CO2. After 2-3 days, the medium was replaced with fresh α-MEM with 20% FBS. After 8-14 days, the cells were rinsed, split by trypsinization (CellGro), pooled, filtered through a 70 μm filter, replated at 3-4 million cells per 150-cm^2 tissue-culture flask, and grown at 33° C. with 5% CO2 for 3-4 days until nearly confluent. The cells were trypsinized, filtered, and resuspended in 0.5% FBS in PBS with biotin-conjugated anti-mouse CD105 antibody (eBioscience) for 15-30 minutes at room temperature. The CD105-labeled cells were incubated with Dynabead M-280 streptavidin-linked magnetic beads (Invitrogen) for 15-30 minutes at 4° C. with agitation and isolated using magnetic separation and rinsed once. The CD105^+ cell fraction was replated at 1-2 million cells per 150-cm^2 tissue-culture flask and incubated at 33° C. with 5% CO2 for 2-3 days.
The MSCs were trypsinized, filtered, diluted in phenol-red-free alpha-MEM with 20% FBS, and plated (30 μl for a total of 2000 cells per well) on 384-well clear-bottomed black tissue-culture treated plate (3712, Corning) pretreated with fibronectin (Millipore). Plate covers (VWR) were added, the plates were spun and at 500 with slow braking, and the cells were incubated at room temperature for 60-90 minutes before incubation at 33° C. with 5% CO2 for 3 days prior to hematopoietic cell plating. […]

The test system of series [6] is primary leukemia cocultures. Nature of the series: Mevalonolactone rescue experiment. The settings on record: 2 mM mevalanolactone with 1 μM lovastatin, 5 days. The series is classed as cell-based, murine. How it is done: Primary leukemia cocultures were plated as described, and treated with 2 mM mevalanolactone and/or 1 μM lovastatin as shown, for 5 days. Total leukemia cells were counted using MetaXpress software from MDC. Carriers were controlled for across all treatments. The viability of the stroma was assessed using stromal monolayers grown alone and treated in parallel, with the same readout described in the stromal toxicity screen here.

“Also recorded” adds a separate entry of the source. Where two headings read alike, the source gives them in different places.

For `CC[C@H](C)[C@@H](COC(Cc1ccccc1)C(=O)N[C@@H](CCS(C)(=O)=O)C(=O)OC(C)C)NC[C@@H](N)CS` (stereo partly drawn) [L-744, 832], the “hit in primary screen” value in series [1] is listed as “independently scored”; in series [1] (listed as L-744832), “independently hit”.

As for `COC(=O)Nc1nc2cc(SC(C)C)ccc2[nH]1` [Methiazole], the “toxicity against normal primary CD34+ cells (human CAFC)” value in series [2] is reported as “neither compound showed toxicity”. The IC50 in the series with normal HSPCs (read-out: Normal IC50, HSPCs on primary MSC stroma, 8-point dose) is more than 20000 nM; in series [3], less than 625 nM; in series [5] (MLL-AF9, LSCs on primary MSC stroma, 8-point dose, read-out: Leukemia IC50) it was 466 nM. For the same compound, the “activity against AML cell lines” value in series [3] was “strong activity”. In addition, the “leukemia cobblestone inhibition (human CAFC)” value in series [4] is given as “leukemia cobblestone inhibition was observed across all six primary leukemia samples”. In addition, the “leukemia-selective activity in coculture vs normal HSPCs” value in series [5] is given as “leukemia-selective activity”.

For the compound `CCCCc1ccc2[nH]c(NC(=O)OC)nc2c1` [Parbendazole], the “toxicity against normal primary CD34+ cells (human CAFC)” value in series [2] is “neither compound showed toxicity”. Also, the IC50 in the series with normal HSPCs (read-out: Normal IC50) is more than 20000 nM; in series [3], less than 625 nM; in series [5] (MLL-AF9, read-out: Leukemia IC50), 76 nM. The “activity against AML cell lines” value in series [3] was “strong activity”. In series [4], the “leukemia cobblestone inhibition (human CAFC)” value was “leukemia cobblestone inhibition was observed across all six primary leukemia samples”. In series [5], the “leukemia-selective activity in coculture vs normal HSPCs” value is “leukemia-selective activity”.

As for `C[C@@]1(O)CCOC(=O)C1` [mevalonolactone], the “rescue of anti-leukemia effect of lovastatic acid” value in series [6] is recorded as “rescues the anti-leukemia effect of lovastatin; also recorded: rescued the anti-leukemia effects of lovastatic acid”.

These data come from patent US20130338092A1, “COMPOUNDS AND METHODS FOR TARGETING LEUKEMIC STEM CELLS” (The Broad Institute, Inc., priority 2011, published 2013).
